In patent publication US20100040552A1, “METHODS TO EVALUATE GLUCOCORTICOID RECEPTOR AGONISTS AND ANTAGONISTS FOR EFFECTS ON NEURON-LIKE CELLS” (ROSETTA INPHARMATICS LLC, priority 2005, published 2010):

Key:
[1] = test system: RGS2, RGS4 and Sult1a1 gene expression; test: In vivo RT-PCR of rat caudate and raphe nucleus (Example 1)
Source text: Cross-hatched bars represent RGS2 gene expression. Unhatched bars represent RGS4 gene expression. ** p=0.003. * p=0.001.
Cross-hatched bars represent Sult1a1 gene expression in the caudate nucleus. Unhatched bars represent Sult1a1 gene expression in the raphe nucleus. *p<0.001.

Glucocorticoid Receptor [2] = molecular target: T1, Glucocorticoid Receptor (Homo sapiens, UniProt P04150); test: Transrepression assay, COS cells; assay type: cell-based; parameters: host or cells: COS cells
T1 sequence (P04150 1-777): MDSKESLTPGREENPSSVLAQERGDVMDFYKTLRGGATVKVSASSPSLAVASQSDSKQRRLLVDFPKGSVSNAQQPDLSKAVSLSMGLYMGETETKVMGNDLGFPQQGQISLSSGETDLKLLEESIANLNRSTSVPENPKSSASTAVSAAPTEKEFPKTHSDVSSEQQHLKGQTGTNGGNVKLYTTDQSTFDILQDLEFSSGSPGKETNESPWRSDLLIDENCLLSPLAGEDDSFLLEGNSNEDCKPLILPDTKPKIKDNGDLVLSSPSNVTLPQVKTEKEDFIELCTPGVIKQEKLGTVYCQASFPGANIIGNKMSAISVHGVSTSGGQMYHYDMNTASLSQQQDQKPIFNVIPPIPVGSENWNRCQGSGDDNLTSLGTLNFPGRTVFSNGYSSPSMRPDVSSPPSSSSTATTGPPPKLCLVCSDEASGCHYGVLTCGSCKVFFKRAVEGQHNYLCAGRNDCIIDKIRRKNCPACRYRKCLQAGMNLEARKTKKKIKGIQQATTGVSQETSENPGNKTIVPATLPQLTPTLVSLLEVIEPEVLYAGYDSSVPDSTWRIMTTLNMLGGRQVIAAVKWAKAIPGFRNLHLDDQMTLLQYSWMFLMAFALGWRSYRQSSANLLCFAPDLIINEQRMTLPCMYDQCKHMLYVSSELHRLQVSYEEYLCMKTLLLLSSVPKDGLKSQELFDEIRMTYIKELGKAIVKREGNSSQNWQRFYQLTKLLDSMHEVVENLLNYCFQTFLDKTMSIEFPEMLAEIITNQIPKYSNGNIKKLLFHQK

Glucocorticoid Receptor [3] = molecular target: T1, Glucocorticoid Receptor; test: Transactivation assay, A549 cells; assay type: cell-based
Glucocorticoid Receptor [4] = molecular target: T1, Glucocorticoid Receptor; test: Transactivation assay, MDA cells; assay type: cell-based; parameters: host or cells: MDA cells; settings: maximal response
[5] = molecular target: T2, MR (mineralocorticoid receptor) (Homo sapiens, UniProt P08235); test: MR binding study
T2 sequence (P08235 1-984): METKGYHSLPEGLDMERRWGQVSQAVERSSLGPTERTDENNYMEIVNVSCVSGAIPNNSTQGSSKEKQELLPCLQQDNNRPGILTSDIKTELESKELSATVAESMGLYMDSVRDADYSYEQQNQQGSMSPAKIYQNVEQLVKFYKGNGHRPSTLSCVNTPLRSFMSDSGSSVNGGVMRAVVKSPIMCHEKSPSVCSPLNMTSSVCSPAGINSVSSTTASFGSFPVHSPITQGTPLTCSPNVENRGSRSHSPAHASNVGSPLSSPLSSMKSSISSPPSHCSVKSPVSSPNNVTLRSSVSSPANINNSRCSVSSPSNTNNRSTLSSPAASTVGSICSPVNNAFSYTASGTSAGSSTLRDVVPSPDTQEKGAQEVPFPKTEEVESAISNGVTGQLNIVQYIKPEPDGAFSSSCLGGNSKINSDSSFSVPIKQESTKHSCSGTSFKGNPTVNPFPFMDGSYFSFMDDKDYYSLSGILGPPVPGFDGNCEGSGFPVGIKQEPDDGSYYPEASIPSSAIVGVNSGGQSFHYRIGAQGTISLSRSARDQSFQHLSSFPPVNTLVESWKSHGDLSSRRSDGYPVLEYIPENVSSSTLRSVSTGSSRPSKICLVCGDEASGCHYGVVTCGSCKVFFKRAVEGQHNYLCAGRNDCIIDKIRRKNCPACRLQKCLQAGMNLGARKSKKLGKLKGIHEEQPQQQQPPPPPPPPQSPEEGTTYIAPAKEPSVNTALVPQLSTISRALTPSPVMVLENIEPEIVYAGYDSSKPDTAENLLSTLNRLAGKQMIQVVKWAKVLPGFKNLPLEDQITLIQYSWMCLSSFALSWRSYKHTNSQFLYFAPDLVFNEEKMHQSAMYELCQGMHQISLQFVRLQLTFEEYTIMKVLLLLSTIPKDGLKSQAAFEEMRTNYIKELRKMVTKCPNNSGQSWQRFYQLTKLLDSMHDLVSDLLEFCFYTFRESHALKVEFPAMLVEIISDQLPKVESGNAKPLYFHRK
Source text: The following abbreviations are used in Table II: MR, mineralocorticoid receptor; GR, glucocorticoid receptor; and PR, progesterone receptor.

Glucocorticoid Receptor [6] = molecular target: T1, Glucocorticoid Receptor; test: Classification of effect on the glucocorticoid receptor; assay type: cell-based; parameters: host or cells: COS cells; settings: as assessed by MDA and A549 transactivation and COS transrepression assays
A549 cells = test: A549 cell molecular profiling experiment; assay type: cell-based; settings: for Up-regulated genes in category DMSO (<0%) / Up-regulated genes in category Full (≧90%) / Up-regulated genes in category High (66.7-90%) / Up-regulated genes in category Low (0-33.3%) / Up-regulated genes in category Middle (33.3-66.7%): set of 1091 genes; for Down-regulated genes in category DMSO (<0%) / Down-regulated genes in category Full (≧90%) / Down-regulated genes in category High (66.7-90%) / Down-regulated genes in category Low (0-33.3%) / Down-regulated genes in category Middle (33.3-66.7%): set of 1249 genes
Sult1a1 = test: In vivo Sult1a1 expression assay (Example 2); parameters: species or system rat; settings: co-administered with dexamethasone
Description: Methods: […] […] The rats were sacrificed 6 hours after the final dose and the hippocampus, raphe and caudate nucleus were dissected and placed in […]® (Qiagen, Valencia, Calif.) for 24 hours. The tissue was then placed in a fresh tube and stored at -80 C. Total RNA was prepared using Trizol® (InVitrogen, Carlsbad, Calif.) using the manufacturer's standard protocol. The total RNA was DNase treated and cDNA was made using the methods described in Example 1 in connection with CA77 cell cDNA preparation.

CA77 cells [7] = test: CA77 cell assay, real-time RT-PCR (TaqMan); assay type: cell-based, rat
Description: Assay: CA77 cells were plated into 96 well tissue culture dishes at a density of 8×10^4 cells per well in 200 μl of PM and the cultures maintained in a humidified air atmosphere (7.5% CO2) at 37° C. This media was aspirated after 24 hours and replaced with 200 μl of GM and the cultures incubated as before, for an additional 48 hours, at which time the cultures were at approximately 90% confluency.
For the evaluation of agonist activity, the GM was aspirated, replaced with 200 μl of fresh GM containing concentrations of a drug ranging from 0.1 nM to 10,000 nM in a 10-fold dilution series. Control wells of 0 nM drug in GM and 0.1% DMSO in GM were included in the series for each drug. Each drug concentration and the two controls were evaluated on 4 wells. The cultures were maintained in a humidified air atmosphere (7.5% CO2) at 37° C. for 24 hours.
Control wells of 0 nM drug in GM containing 250 nM corticosterone and 0.1% DMSO in GM (without corticosterone) were included in the series for each drug. Each drug concentration and the two controls were evaluated on 4 wells. The cultures were maintained in a humidified air atmosphere (7.5% CO2) at 37° C. for 24 hours.
Lysis of Cells and Isolation of mRNA: Two methods were employed for the lysis of the cells and the isolation of mRNA at the end of the 24-hour incubation with the drugs.
One method was the mRNA Catcher™ Method (using Kit number 37001, sold by Invitrogen Corporation). The GM was aspirated from the cells, the cell monolayer was washed once with PBS (product number 10010, sold by Invitrogen Corporation), and then the cells were lysed in 30 μl of the kit lysis buffer containing 1% β-ME for 5 minutes at room temperature. The lysates were snap frozen in the 96-well plate by placing the plate on dry ice pellets, and the plate was then stored at −80° C.
The lysates were thawed at room temperature and then transferred into individual wells in the mRNA Catcher™ plate. The plate was covered and incubated for 90 minutes at room temperature for RNA hybridization. […]

CA77 cells [8] = test: CA77 cell microarray profiling; assay type: cell-based, rat
Description: In order to reduce false positives, progesterone, estradiol, and aldosterone served as out-groups for non-specific effects. Samples were collected at both 6 hours and 24 hours after contacting the CA77 cells with a compound.

RGS2 and RGS4 mRNA = settings: cited from earlier work

C[C@H]1C[C@@H]2[C@H]([C@@H](O)C[C@@]3(C)[C@H]2CC[C@]3(O)C(=O)CO)[C@@]2(C)C=CC(=O)C=C12 [M-Prednisolone, 6α-methylprednisolone]
RGS4 expression in caudate nucleus ([1]; down-regulated): about 50 % of control levels
RGS2 expression in caudate nucleus ([1]; upregulated vs vehicle): 2 fold
Transrepression, COS % Emax, 0.3 μM (Glucocorticoid Receptor [2]; 0.3 μM): 100%
Transrepression, COS % Emax, 1 uM (Glucocorticoid Receptor [2]; 1 uM): 100%
Transactivation, A549 Emax (Glucocorticoid Receptor [3]; maximal response): 124%
Transactivation, MDA Emax (Glucocorticoid Receptor [4]): 104%

C[C@]12C=CC(=O)C=C1CC[C@@H]1[C@@H]2[C@@H](O)C[C@@]2(C)[C@H]1CC[C@]2(O)C(=O)CO [Prednisolone, prednisolone]
IC50 [5]: 0.98 nM
Effect on the glucocorticoid receptor (degree of agonist activity) (Glucocorticoid Receptor [6]): full agonist activity
Up-regulated genes in category DMSO (<0%) (A549 cells; 100 nM): 0
Up-regulated genes in category Full (≧90%) (A549 cells; 100 nM): 940
Up-regulated genes in category High (66.7-90%) (A549 cells; 100 nM): 150
Up-regulated genes in category Low (0-33.3%) (A549 cells; 100 nM): 0
Up-regulated genes in category Middle (33.3-66.7%) (A549 cells; 100 nM): 1
Down-regulated genes in category DMSO (<0%) (A549 cells; 100 nM): 0
Down-regulated genes in category Full (≧90%) (A549 cells; 100 nM): 1140
Down-regulated genes in category High (66.7-90%) (A549 cells; 100 nM): 109
Down-regulated genes in category Low (0-33.3%) (A549 cells; 100 nM): 0
Down-regulated genes in category Middle (33.3-66.7%) (A549 cells; 100 nM): 0

CC#C[C@]1(O)CC[C@H]2[C@@H]3CCC4=CC(=O)CCC4=C3[C@@H](c3ccc(N(C)C)cc3)C[C@@]21C [RU-486, mifepristone]
Effect on dexamethasone-induced Sult1a1 upregulation in the hippocampus (Sult1a1): reversal of this effect
Emax at 1 µM (Glucocorticoid Receptor [2]; COS, read-out: Transrepression, COS % Emax, 1 uM): 40%
Effect on up-regulation of RGS2, Sult1a1, IL6R and SGK by a GR agonist (CA77 cells [7]; CA77 cells, co-administered with dexamethasone): reversal of this effect
Effect on the glucocorticoid receptor (degree of agonist activity) (Glucocorticoid Receptor [6]): low partial agonist activity
Emax (Glucocorticoid Receptor [3]; A549, read-out: Transactivation, A549 Emax): 90%
Up-regulated genes in category DMSO (<0%) (A549 cells; 1 μm): 287
Up-regulated genes in category Full (≧90%) (A549 cells; 1 μm): 38
Up-regulated genes in category High (66.7-90%) (A549 cells; 1 μm): 63
Up-regulated genes in category Low (0-33.3%) (A549 cells; 1 μm): 449
Up-regulated genes in category Middle (33.3-66.7%) (A549 cells; 1 μm): 254
Down-regulated genes in category DMSO (<0%) (A549 cells; 1 μm): 454
Down-regulated genes in category Full (≧90%) (A549 cells; 1 μm): 41
Down-regulated genes in category High (66.7-90%) (A549 cells; 1 μm): 70
Down-regulated genes in category Low (0-33.3%) (A549 cells; 1 μm): 418
Down-regulated genes in category Middle (33.3-66.7%) (A549 cells; 1 μm): 266

C[C@]12CCC(=O)C=C1CC[C@@H]1[C@@H]2[C@@H](O)C[C@]2(C=O)[C@@H](C(=O)CO)CC[C@@H]12 [aldosterone]
Activity in the GR agonist signature at 6 hours (CA77 cells [8]; 6 hours): little or no activity
Presence of the GR agonist signature (CA77 cells [8]; response at 24 hours): weakly present

C[C@]12C[C@H](O)[C@H]3[C@@H](CCC4=CC(=O)CC[C@@]43C)[C@@H]1CC[C@@H]2C(=O)CO [corticosterone]
EC50 (CA77 cells [7]; Rattus norvegicus, CA77 cell assay): 250 nM

O=C(CCCN1CCC(O)(c2ccc(Cl)cc2)CC1)c1ccc(F)cc1 [haloperidol]
RGS2 mRNA (RGS2 and RGS4 mRNA): up-regulated
RGS4 mRNA levels (RGS2 and RGS4 mRNA): down-regulation
